Test system: 282377-053-R-J1-PDC complex spheroids, viability
Assay: Anticancer human tumor 282377-053-R-J1-PDC patient-derived colon adenocarcinoma cell line growth inhibition [GQUAD]
Conditions: for IC50: curve of first compound; for viability, T/C: stronger effect = lower value
Source text: DNA G-quadruplex Stabilizer Agents in Combinations in Complex Spheroids
A high-throughput screen of multi-cell type tumor spheroids was designed to identify active combinations of DNA G-quadruplex stabilizer agents and targeted small molecules. Complex spheroids include a stromal component modeled by human endothelial cells (HUVEC) and fibroblasts modeled by human mesenchymal stem cells (MSCs). The concentration ranges selected for each drug and investigational agent were based upon clinically achievable concentrations if the clinical Cmax of the agent was known.
Compounds. The drugs and investigational agents: pidnarulex (CX-5461; NSC782164), APTO-253 (NSC789042), BRACO-19 (NSC847499), peposertib (NSC802822), ceralasertib (NSC780249), elimusertib (NSC800525), camonsertib (NSC841442), AZD-1390 (NSC803789), olaparib (NSC753686), talazoparib (NSC767125), ART-558 (NSC835418), sotorasib (NSC818433), MRTX-1133 (NSC836407), SN-38 (NSC673596), topotecan (NSC609699), etoposide (NSC141540), doxorubicin (NSC123127), gemcitabine (NSC613327), 5-fluorouracil (NSC19893), paclitaxel (NSC125973), vemurafenib (NSC761431), panobinostat (NSC761190), R-306465 (JNJ-16241199; NSC773264), adavosertib (NSC754352), TP-3654 (NSC805149), carboplatin (NSC241240), KSQ-4279 (NSC840948), and staurosporine (NSC755774) were obtained from the National Cancer Institute (NCI) Developmental Therapeutics Program Chemical Repository (34). The FDA-approved anticancer drug set is available from the NCI Developmental Therapeutics Program. […] The stock solutions were prepared in dimethyl sulfoxide (DMSO, Sigma-Aldrich, St. Louis, MO, cat. D2650) at 800-fold the tested concentration and stored at -70 degrees C prior to their use. All drugs and investigational agents were tested over a range starting from a high concentration at or near the clinical Cmax and decreasing in half-log increments. If the clinical Cmax for an agent had not been determined, the highest concentration tested was 10 microM.
2.3 Cell Culture. All cells were maintained in an incubator at 37 degrees C and 5% CO2 with 95% humidity. The PDC lines were cultured according to standard operating procedures established by the NCI PDMR. All PDCs were thawed and cultured in Matrigel-coated flasks prepared with a working solution of 1X Ham's F-12 nutrient mix, without supplementation (Invitrogen, cat. 11765054), 100 U/mL penicillin-streptomycin (Invitrogen, cat. 15140122), and 2.5% Matrigel (Corning Inc., cat. 354248) for the first three passages. The 857933-349-R-J2-PDC line was cultured in 6C/Colon 1B media, which includes advanced DMEM/F-12 (Thermo Fisher Scientific, cat. 12634028), 10 mM HEPES (Thermo Fisher Scientific, cat. 15630080), 1X GlutaMAX supplement (Thermo Fisher Scientific, cat. 35050061), 0.1 mg/mL primocin (InvivoGen, cat. ant-pm-2), 10% defined fetal bovine serum, heat inactivated (HyClone Laboratories Inc., cat. SH30070.03HI), 50% L-WRN conditioned media (ATCC, cat. CRL-3276), 1.25 mM N-Acetyl-L-cysteine (Sigma-Aldrich, cat. A9165), 10 mM nicotinamide (Sigma-Aldrich, cat. N0636), 1X B-27 supplement (Thermo Fisher Scientific, cat. 17504044), 1X N-2 supplement (Thermo Fisher Scientific, cat. 17502048), 10 microM Y-27632 dihydrochloride (Tocris Bioscience, cat. 1254), and 50 ng/mL human EGF recombinant protein (Thermo Fisher Scientific, cat. PHG0311). The 485176-168-R4-J1-PDC line was cultured in Panc media, which includes all 6C/Colon 1B media components plus 100 ng/mL human FGF-10 (Thermo Fisher Scientific, cat. 100-26), 500 nM SB-431542 (Selleckchem, cat. S1067), and gastrin (Tocris, cat. 3006).
[…]

[1] = second compound 0.0316 µM, first compound 0.0316 µM
[2] = second compound 0.0316 µM, first compound 0.1 µM
[3] = second compound 0.0316 µM, first compound 0.316 µM
[4] = second compound 0.0316 µM, first compound 1 µM
[5] = second compound 0.0316 µM, first compound 3.16 µM
[6] = second compound 0.0316 µM, first compound 10 µM
[7] = second compound 0.1 µM, first compound 0.0316 µM
[8] = second compound 0.1 µM, first compound 0.1 µM
[9] = second compound 0.1 µM, first compound 0.316 µM
[10] = second compound 0.1 µM, first compound 1 µM
[11] = second compound 0.1 µM, first compound 3.16 µM
[12] = second compound 0.1 µM, first compound 10 µM
[13] = second compound 0.316 µM, first compound 0.0316 µM
[14] = second compound 0.316 µM, first compound 0.1 µM
[15] = second compound 0.316 µM, first compound 0.316 µM
[16] = second compound 0.316 µM, first compound 1 µM
[17] = second compound 0.316 µM, first compound 3.16 µM
[18] = second compound 0.316 µM, first compound 10 µM
[19] = second compound 1 µM, first compound 0.0316 µM
[20] = second compound 1 µM, first compound 0.1 µM
[21] = second compound 1 µM, first compound 0.316 µM
[22] = second compound 1 µM, first compound 1 µM
[23] = second compound 1 µM, first compound 3.16 µM
[24] = second compound 1 µM, first compound 10 µM
[25] = second compound 3.16 µM, first compound 0.0316 µM
[26] = second compound 3.16 µM, first compound 0.1 µM
[27] = second compound 3.16 µM, first compound 0.316 µM
[28] = second compound 3.16 µM, first compound 1 µM
[29] = second compound 3.16 µM, first compound 3.16 µM
[30] = second compound 3.16 µM, first compound 10 µM
[31] = second compound 10 µM, first compound 0.0316 µM
[32] = second compound 10 µM, first compound 0.1 µM
[33] = second compound 10 µM, first compound 0.316 µM
[34] = second compound 10 µM, first compound 1 µM
[35] = second compound 10 µM, first compound 3.16 µM
[36] = second compound 10 µM, first compound 10 µM
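Note: spheroids exposed to compounds for 7 days before readout.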
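Throughout, for viability, T/C: percent of vehicle DMSO control viability with 100% = untreated-like growth.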

COc1cc(C2c3cc4c(cc3C(OC3OC5COC(C)OC5C(O)C3O)C3COC(=O)C23)OCO4)cc(OC)c1O (stereo unspecified) + CN(C)c1ccc(Nc2c3ccc(NC(=O)CCN4CCCC4)cc3nc3cc(NC(=O)CCN4CCCC4)ccc23)cc1
IC50 (second compound 0.0316 µM): > 10 µM | IC50 (second compound 0.1 µM): > 10 µM | IC50 (second compound 0.316 µM): > 10 µM | IC50 (second compound 1 µM): > 10 µM | IC50 (second compound 3.16 µM): > 10 µM | IC50 (second compound 10 µM): > 10 µM | viability, T/C [1]: 94.2% | viability, T/C [2]: 94.2% | viability, T/C [3]: 86.6% | viability, T/C [4]: 117% | viability, T/C [5]: 86.7% | viability, T/C [6]: 68.2% | viability, T/C [7]: 105% | viability, T/C [8]: 85.4% | viability, T/C [9]: 101% | viability, T/C [10]: 86% | viability, T/C [11]: 75% | viability, T/C [12]: 67.6% | viability, T/C [13]: 108% | viability, T/C [14]: 93% | viability, T/C [15]: 99% | viability, T/C [16]: 95.6% | viability, T/C [17]: 97.7% | viability, T/C [18]: 66.4% | viability, T/C [19]: 97.4% | viability, T/C [20]: 67.8% | viability, T/C [21]: 114% | viability, T/C [22]: 105% | viability, T/C [23]: 89.2% | viability, T/C [24]: 60.8% | viability, T/C [25]: 94.7% | viability, T/C [26]: 90% | viability, T/C [27]: 120% | viability, T/C [28]: 106% | viability, T/C [29]: 86% | viability, T/C [30]: 66.8% | viability, T/C [31]: 90.3% | viability, T/C [32]: 90.4% | viability, T/C [33]: 105% | viability, T/C [34]: 105% | viability, T/C [35]: 90.4% | viability, T/C [36]: 64.3%

O=C(c1cc(Cc2n[nH]c(=O)c3ccccc23)ccc1F)N1CCN(C(=O)C2CC2)CC1 + CN(C)c1ccc(Nc2c3ccc(NC(=O)CCN4CCCC4)cc3nc3cc(NC(=O)CCN4CCCC4)ccc23)cc1
IC50 (second compound 0.0316 µM): > 10 µM | IC50 (second compound 0.1 µM): > 10 µM | IC50 (second compound 0.316 µM): > 10 µM | IC50 (second compound 1 µM): > 10 µM | IC50 (second compound 3.16 µM): > 10 µM | IC50 (second compound 10 µM): > 10 µM | viability, T/C [1]: 102% | viability, T/C [2]: 91.5% | viability, T/C [3]: 94.2% | viability, T/C [4]: 97.4% | viability, T/C [5]: 105% | viability, T/C [6]: 96.8% | viability, T/C [7]: 128% | viability, T/C [8]: 107% | viability, T/C [9]: 96.9% | viability, T/C [10]: 100% | viability, T/C [11]: 89.7% | viability, T/C [12]: 90.7% | viability, T/C [13]: 102% | viability, T/C [14]: 92.6% | viability, T/C [15]: 83.4% | viability, T/C [16]: 81.5% | viability, T/C [17]: 91.2% | viability, T/C [18]: 109% | viability, T/C [19]: 108% | viability, T/C [20]: 88% | viability, T/C [21]: 88.1% | viability, T/C [22]: 74.9% | viability, T/C [23]: 74.7% | viability, T/C [24]: 92.4% | viability, T/C [25]: 91.6% | viability, T/C [26]: 83.5% | viability, T/C [27]: 99.3% | viability, T/C [28]: 101% | viability, T/C [29]: 86.5% | viability, T/C [30]: 89.5% | viability, T/C [31]: 99% | viability, T/C [32]: 88.4% | viability, T/C [33]: 105% | viability, T/C [34]: 75.9% | viability, T/C [35]: 108% | viability, T/C [36]: 119%

O=c1[nH]cc(F)c(=O)[nH]1 + CN(C)c1ccc(Nc2c3ccc(NC(=O)CCN4CCCC4)cc3nc3cc(NC(=O)CCN4CCCC4)ccc23)cc1
IC50 (second compound 0.0316 µM): > 10 µM | IC50 (second compound 0.1 µM): > 10 µM | IC50 (second compound 0.316 µM): > 10 µM | IC50 (second compound 1 µM): > 10 µM | IC50 (second compound 3.16 µM): > 10 µM | IC50 (second compound 10 µM): > 10 µM | viability, T/C [1]: 95.5% | viability, T/C [2]: 87.1% | viability, T/C [3]: 110% | viability, T/C [4]: 81% | viability, T/C [5]: 73.4% | viability, T/C [6]: 74.1% | viability, T/C [7]: 101% | viability, T/C [8]: 93.1% | viability, T/C [9]: 104% | viability, T/C [10]: 88.8% | viability, T/C [11]: 74.5% | viability, T/C [12]: 73.2% | viability, T/C [13]: 106% | viability, T/C [14]: 94.3% | viability, T/C [15]: 106% | viability, T/C [16]: 96% | viability, T/C [17]: 67.8% | viability, T/C [18]: 73.8% | viability, T/C [19]: 108% | viability, T/C [20]: 94.4% | viability, T/C [21]: 106% | viability, T/C [22]: 89.9% | viability, T/C [23]: 77.8% | viability, T/C [24]: 69% | viability, T/C [25]: 83.1% | viability, T/C [26]: 75.7% | viability, T/C [27]: 89.2% | viability, T/C [28]: 79.1% | viability, T/C [29]: 68.2% | viability, T/C [30]: 64.5% | viability, T/C [31]: 92.8% | viability, T/C [32]: 81.3% | viability, T/C [33]: 88.5% | viability, T/C [34]: 81.7% | viability, T/C [35]: 70.1% | viability, T/C [36]: 57.9%

From PubChem BioAssay AID2060501 (Molecular Pharmacology Branch, DTP, NCI, 2025)
